Reference: ChEMBL document CHEMBL5143513, “Design, synthesis and biological evaluation of bisindole derivatives as anticancer agents against Tousled-like kinases” (Eur J Med Chem, 2022)
pIC50: −log10 of the molar value. Activity calls are given as the source filed them. The rule behind the calls is not given here.

Tests used:
[1] = molecular target: T1, Serine/threonine-protein kinase tousled-like 2 (Homo sapiens, UniProt Q86UE8); experiment: Inhibition of full length FLAG/HA/Strep-tagged TLK2 (unknown origin) transfected in HEK293T cells at 50 uM using GST-ASF1 as substrate preincubated for 15 mins followed by substrate addition and measured after 15 mins in presence of ATP by Western blot analysis; details: time 30.0 min
Target sequence in this assay (Q86UE8 whole entry, looked up): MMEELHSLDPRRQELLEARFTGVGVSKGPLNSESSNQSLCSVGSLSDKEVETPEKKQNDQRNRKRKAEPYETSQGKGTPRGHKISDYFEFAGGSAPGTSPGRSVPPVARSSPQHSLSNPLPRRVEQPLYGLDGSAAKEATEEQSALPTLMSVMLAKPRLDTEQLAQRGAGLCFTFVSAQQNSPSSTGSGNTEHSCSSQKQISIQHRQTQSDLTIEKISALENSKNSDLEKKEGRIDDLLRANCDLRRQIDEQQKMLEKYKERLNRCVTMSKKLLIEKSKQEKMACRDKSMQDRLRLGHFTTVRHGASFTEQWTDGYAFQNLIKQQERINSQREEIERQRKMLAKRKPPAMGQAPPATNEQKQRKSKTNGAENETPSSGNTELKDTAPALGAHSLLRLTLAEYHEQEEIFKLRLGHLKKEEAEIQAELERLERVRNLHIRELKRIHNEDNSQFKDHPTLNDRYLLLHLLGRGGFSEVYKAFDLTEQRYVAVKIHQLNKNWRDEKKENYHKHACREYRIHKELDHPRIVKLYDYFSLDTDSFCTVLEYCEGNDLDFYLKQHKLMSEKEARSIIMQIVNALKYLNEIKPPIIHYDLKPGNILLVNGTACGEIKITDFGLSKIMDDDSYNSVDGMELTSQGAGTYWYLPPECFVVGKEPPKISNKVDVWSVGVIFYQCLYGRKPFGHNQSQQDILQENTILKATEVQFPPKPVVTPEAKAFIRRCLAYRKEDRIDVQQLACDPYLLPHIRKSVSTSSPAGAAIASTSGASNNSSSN

[2] = molecular target: Histone chaperone ASF1A (Homo sapiens) (UniProt Q9Y294); experiment: Inhibition of ASF1a phosphorylation at S166 residue in human MDA-MB-231 cells at 10 uM incubated for 4 hrs by Western blot analysis; type: cell-based
[3] = molecular target: T1, Serine/threonine-protein kinase tousled-like 2; experiment: Inhibition of full length FLAG/HA/Strep-tagged TLK2 (unknown origin) transfected in HEK293T cells assessed as reduction in ASF1a phosphorylation at S166 residue at 5 uM by Western blot analysis; type: cell-based
Target sequence in this assay (Q86UE8 whole entry, looked up): as above

MDA-MB-231 [4] = experiment: Cytotoxicity against human MDA-MB-231 cells assessed as reduction in cell viability at 0.5 uM measured after 72 hrs by MTT assay; type: functional
MDA-MB-231 [5] = experiment: Cytotoxicity against human MDA-MB-231 cells assessed as reduction in cell viability incubated for 72 hrs by MTT assay; type: functional, cell-based; details: MDA-MB-231, 72 h
A549 = experiment: Cytotoxicity against human A549 cells assessed as reduction in cell viability incubated for 72 hrs by MTT assay; type: functional, cell-based; details: A549, 72 h
HCT-116 = experiment: Cytotoxicity against human HCT-116 cells assessed as reduction in cell viability incubated for 72 hrs by MTT assay; type: functional, cell-based; details: HCT-116, 72 h
[6] = Cytotoxicity against human IMR-90 cells assessed as reduction in cell viability incubated for 72 hrs by MTT assay; type: toxicity, cell-based
[7] = Cytotoxicity against human MRC5 cells assessed as reduction in cell viability incubated for 72 hrs by MTT assay; type: toxicity, cell-based
[8] = molecular target: T1, Serine/threonine-protein kinase tousled-like 2; experiment: Inhibition of full length FLAG/HA/Strep-tagged TLK2 (unknown origin) transfected in HEK293T cells assessed as reduction in TLK mediated ASF1a phosphorylation at 50 uM by Western blot analysis; type: cell-based
Target sequence in this assay (Q86UE8 whole entry, looked up): as above

[9] = molecular target: T1, Serine/threonine-protein kinase tousled-like 2; experiment: Inhibition of full length FLAG/HA/Strep-tagged TLK2 (unknown origin) in human U2OS cells assessed as ASF1 phosphorylation by measuring decrease in band shift at 16.7 uM measured after 4 hrs by Western blot analysis; type: cell-based
Target sequence in this assay (Q86UE8 whole entry, looked up): as above

[10] = molecular target: T1, Serine/threonine-protein kinase tousled-like 2; experiment: Inhibition of full length FLAG/HA/Strep-tagged TLK2 (unknown origin) in human MDA-MB-231 cells assessed as reduction in ASF1 phosphorylation at 16.7 uM measured after 4 hrs by Western blot analysis; type: cell-based
Target sequence in this assay (Q86UE8 whole entry, looked up): as above

U2OS [11] = experiment: Effect on cell cycle progression in human U2OS cells assessed as accumulation of cells at S phase measured after 8 hrs by PI staining based flow cytometric analysis; type: functional; details: dose 2.5-20 µM, DDE = dose-dependent effect
U2OS [12] = experiment: Inhibition of DNA replication in PCNA positive human U2OS cells assessed as reduction in EdU level at 2.5 to 20 uM incubated for 4 hrs by immunofluorescence staining based EdU incorporation assay; type: functional, cell-based; details: dose 2.5-20 µM
U2OS [13] = experiment: Induction of DNA damage in human U2OS cells assessed as increase in CHK1 phosphorylation at S345 residue at 2.5 to 5 uM incubated for 4 hrs by Western blot analysis; type: functional, cell-based; details: dose 2.5-5 µM
U2OS [14] = experiment: Induction of DNA damage in human U2OS cells assessed as increase in CHK2 phosphorylation at T68 residue at 5 to 10 uM incubated for 4 hrs by Western blot analysis; type: functional, cell-based; details: dose 5-10 µM
U2OS [15] = experiment: Induction of DNA damage in human U2OS cells assessed as increase in KAP1 phosphorylation at S824 residue at 5 to 10 uM incubated for 4 hrs by Western blot analysis; type: functional, cell-based; details: dose 5-10 µM
U2OS [16] = experiment: Induction of DNA damage in human U2OS cells assessed as increase in RPA2 phosphorylation at S4/S8 residue at 5 to 10 uM incubated for 4 hrs by Western blot analysis; type: functional, cell-based; details: dose 5-10 µM
U2OS [17] = experiment: Induction of DNA damage in PCNA positive human U2OS cells assessed as increase in H2AX phosphorylation at S139 residue in S phase by measuring fluorescence intensity at 10 uM incubated for 4 hrs by immunofluorescence microscopy; type: functional, cell-based
[18] = molecular target: T1, Serine/threonine-protein kinase tousled-like 2; experiment: Binding affinity to full length FLAG/HA/Strep-tagged TLK2 (388 to 772 residues) (unknown origin) transfected in HEK293T cells by Alexa Fluor 647 staining based FRET assay; type: cell-based
Target sequence in this assay (Q86UE8 whole entry): as the sequence (Q86UE8 whole entry, looked up) above

MDA-MB-231 [19] = experiment: Effect on cell cycle progression in human MDA-MB-231 cells assessed as accumulation of cells at S phase at 2 uM by PI staining based flow cytometric analysis; type: functional
MDA-MB-231 [20] = experiment: Induction of DNA damage in human MDA-MB-231 cells at 10 uM incubated for 4 hrs by gel electrophoresis method; type: functional, cell-based
MDA-MB-231 [21] = experiment: Antiproliferative activity against human MDA-MB-231 cells assessed as reduction in cell growth at 0.25 uM by trypan blue assay; type: functional, cell-based
[22] = molecular target: T1, Serine/threonine-protein kinase tousled-like 2; experiment: Inhibition of full length FLAG/HA/Strep-tagged TLK2 (unknown origin) in human U2OS cells assessed as reduction in ASF1 phosphorylation at 16.7 uM measured after 4 hrs by Western blot analysis; type: cell-based
Target sequence in this assay (Q86UE8 whole entry, looked up): as above

U2OS [23] = experiment: Effect on cell cycle progression in human U2OS cells assessed as accumulation of cells at early stage of S phase measured after 8 hrs by PI staining based flow cytometric analysis; type: functional
U2OS [24] = experiment: Inhibition of DNA replication in PCNA positive human U2OS cells assessed as reduction in EdU level at 50 uM incubated for 4 hrs by immunofluorescence staining based EdU incorporation assay; type: functional, cell-based
MDA-MB-231 [25] = experiment: Antiproliferative activity against human MDA-MB-231 cells assessed as reduction in cell growth at 1 uM by trypan blue assay; type: functional, cell-based
MDA-MB-231 [26] = experiment: Antiproliferative activity against human MDA-MB-231 cells assessed as increase in cell death rate at 1 uM by trypan blue assay; type: functional, cell-based
MDA-MB-231 [27] = experiment: Induction of cell cycle arrest in human MDA-MB-231 cells assessed as increase in cells at sub G1 phase at 2 uM measured after 72 hrs by PI staining based flow cytometric analysis (reference value: 0.8%); type: functional
MDA-MB-231 [28] = experiment: Induction of cell cycle arrest in human MDA-MB-231 cells assessed as increase in cells at sub G1 phase at 4 uM measured after 72 hrs by PI staining based flow cytometric analysis (reference value: 0.8%); type: functional
MDA-MB-231 [29] = experiment: Induction of apoptosis in human MDA-MB-231 cells assessed as increase in caspase-3 level at 4 uM incubated for 72 hrs by gel electrophoresis method; type: functional, cell-based
MDA-MB-231 [30] = experiment: Induction of apoptosis in human MDA-MB-231 cells assessed as increase in caspase-9 level at 4 uM incubated for 72 hrs by gel electrophoresis method; type: functional, cell-based
MDA-MB-231 [31] = experiment: Induction of apoptosis in human MDA-MB-231 cells assessed as decrease in Bcl-xL level at 4 uM incubated for 72 hrs by gel electrophoresis method; type: functional, cell-based
MDA-MB-231 [32] = experiment: Induction of apoptosis in human MDA-MB-231 cells assessed as decrease in MCL-1 level at 4 uM incubated for 72 hrs by gel electrophoresis method; type: functional, cell-based

Sequence of Histone chaperone ASF1A (Homo sapiens) (Q9Y294 whole entry): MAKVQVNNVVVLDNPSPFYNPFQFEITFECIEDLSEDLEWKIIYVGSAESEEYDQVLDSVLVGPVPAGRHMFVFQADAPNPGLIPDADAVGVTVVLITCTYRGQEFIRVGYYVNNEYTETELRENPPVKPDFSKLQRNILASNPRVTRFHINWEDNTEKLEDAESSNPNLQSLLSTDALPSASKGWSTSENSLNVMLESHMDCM

SMILES	inhibition of ASF1a S166 phosphorylation (active/inactive call) [2]	inhibition [3]	Activity (MDA-MB-231 [4]) [%]	pIC50 (MDA-MB-231 [5])	pIC50 (A549)	pIC50 (HCT-116)	IC50 at 72 h [6] [nM]	IC50 at 72 h [7] [nM]	other results
COc1ccc2c(c1)c(C1=C(c3c[nH]c4ccccc34)C(=O)NC1=O)cn2CCCN(C)C	–	–	–	–	–	–	–	–	inhibition [1]: Active
CN1CCCCC1CCO/N=C1/C(=C2/C(=O)Nc3ccccc32)Nc2ccccc21 (centres undefined)	–	–	<30	5.93	5.92	5.89	> 2000	> 2000	inhibition [8]: Active; inhibition [9]: Active; inhibition [10]: Active; Activity (U2OS [11]): Dde; inhibition (U2OS [12]): Active; Activity (U2OS [13]): Active; Activity (U2OS [14]): Active; Activity (U2OS [15]): Active; Activity (U2OS [16]): Active; Activity (U2OS [17]): Active; pIC50 [18]: 6.79
CN1CCC(O/N=C2/C(=C3/C(=O)Nc4ccccc43)Nc3ccccc32)CC1	Active	Active	40	6.60	6.72	6.41	> 2000	> 2000	pIC50 [18]: 7.48; Activity (MDA-MB-231 [19]): Active; Activity (MDA-MB-231 [20]): Active; Activity (MDA-MB-231 [21]): Active
CN(C)CCCn1cc(C2=C(c3c[nH]c4ccccc34)C(=O)NC2=O)c2ccccc21	–	–	–	–	–	–	–	–	inhibition [1]: Active
NC(=O)NO	–	–	–	–	–	–	–	–	inhibition [22]: Active; Activity (U2OS [23]): Active; inhibition (U2OS [24]): Active
CN(C)CCCO/N=C1/C(=C2/C(=O)Nc3ccccc32)Nc2ccccc21	Active	Active	40	6.36	6.21	6.15	> 2000	> 2000	Activity (MDA-MB-231 [19]): Active; Activity (MDA-MB-231 [20]): Active
CN1CCCCC1CCO/N=C1/C(=C2/C(=O)Nc3cc(F)ccc32)Nc2ccccc21 (centres undefined)	–	–	<30	–	–	–	–	–	–
CN[C@@H]1C[C@H]2O[C@@](C)([C@@H]1OC)n1c3ccccc3c3c4c(c5c6ccccc6n2c5c31)C(=O)NC4	–	–	–	–	–	–	–	–	inhibition [1]: Active
CN1CCCCC1CCO/N=C1/C(=C2/C(=O)Nc3ccccc32)Nc2ccc(F)cc21 (centres undefined)	–	–	<30	–	–	–	–	–	–

More lines, main results first:

inhibition of ASF1a S166 phosphorylation (active/inactive call) [2]	inhibition [3]	SMILES	Activity (MDA-MB-231 [4]) [%]	pIC50 (MDA-MB-231 [5])	pIC50 (A549)	pIC50 (HCT-116)	IC50 at 72 h [6] [nM]	IC50 at 72 h [7] [nM]	other results
Active	Active	CN1CCCCC1CCO/N=C1/C(=C2/C(=O)Nc3ccc(F)cc32)Nc2ccccc21 (centres undefined)	40	6.28	6.22	6.22	> 2000	> 2000	–
Active	Active	CN1CCCC1CCO/N=C1/C(=C2/C(=O)Nc3ccccc32)Nc2ccccc21 (centres undefined)	40	6.60	6.59	6.43	> 2000	> 2000	pIC50 [18]: 7.73; Activity (MDA-MB-231 [19]): Active; Activity (MDA-MB-231 [20]): Active; Activity (MDA-MB-231 [21]): Active; Activity (MDA-MB-231 [25]): Active; Activity (MDA-MB-231 [26]): Active; Activity (MDA-MB-231 [27]): 15.4%; Activity (MDA-MB-231 [28]): 25.6%; Activity (MDA-MB-231 [29]): Active; Activity (MDA-MB-231 [30]): Active; Activity (MDA-MB-231 [31]): Active; Activity (MDA-MB-231 [32]): Active
Active	–	CN1CCCCC1CCO/N=C1/C(=C2/C(=O)Nc3cc(Cl)ccc32)Nc2ccccc21 (centres undefined)	–	–	–	–	–	–	–
Active	Active	CN1CCCCC1CCO/N=C1/C(=C2/C(=O)Nc3ccc([N+](=O)[O-])cc32)Nc2ccccc21 (centres undefined)	40	–	–	–	–	–	–
